Tests used:
[1] = system: Chinese sprangletop; assay: Test Example 3: herbicidal effect by foliage application, Wagner pot (Table 18, symbol D); format: in vivo, chinese sprangletop (Leptochloa chinensis); conditions: for herbicidal effect on Chinese sprangletop (D): 320 g/ha; for Herbicidal effect on D (Chinese sprangletop), foliage application: amount of applied herbicide 320 g/ha
Outline: (§1)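 Plants were sown in alluvial soil held under 0.1–0.5 cm standing water and grown 14 days in a greenhouse at 25–30 °C. An emulsifiable formulation, water-diluted to the set dose, was then sprayed onto the foliage, and effects were scored three weeks later using previously defined criteria.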

[2] = system: false cleavers; assay: Test Example 4: herbicidal effect by soil treatment (Table 19, symbol Q); format: in vivo, false cleavers (Galium spurium); conditions: amount of applied herbicide 320 g/ha
Outline: (§2)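 In this soil treatment, the formulated compound reached the seeds only through the soil: seeds were buried about 1.5 cm deep in sterilized diluvial soil, then the diluted emulsion was sprayed over the surface. After three weeks at 25° C. to 30° C. in a greenhouse, effects were graded on criteria from an earlier test.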

[3] = system: chickweed; assay: Test Example 5: herbicidal effect by foliage application, plastic box (Table 20, symbol P); format: in vivo, common chickweed (Stellaria media); conditions: foliage application, 320 g/ha, three weeks after application
Outline: (§3)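 Plants were sown into sterilized diluvial soil under about 1.5 cm cover and kept in a greenhouse at 25° C. to 30° C. Fourteen days on, foliage received an even spray of the diluted emulsion. Herbicidal or crop effect was judged three weeks afterwards.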

[4] = system: barnyard grass; assay: Test Example 5: herbicidal effect by foliage application, plastic box (Table 20, symbol H); format: in vivo, barnyard grass (Echinochloa crus-galli); conditions: foliage application, 320 g/ha, three weeks after application
Outline: as §3

[5] = system: late watergrass; assay: Test Example 1: herbicidal activity, application before weed generation under submerged conditions (Table 16, symbol A); format: in vivo, late watergrass (Echinochloa oryzicola); conditions: amount of applied herbicide 320 g/ha
Outline: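 Submerged Wagner pots (alluvial soil, 4 cm water) sown with weed seeds and planted with 2.5-leaf rice seedlings; emulsifiable concentrate diluted in water applied to water surface on sowing day. Held in greenhouse at 25-30 °C; injury scored 0-5 by herbicidal rate after three weeks.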

[6] = system: persian speedwell; assay: Test Example 4: herbicidal effect by soil treatment (Table 19, symbol R); format: in vivo, Persian speedwell (Veronica persica); conditions: amount of applied herbicide 320 g/ha
Outline: as §2

[7] = system: velvetleaf; assay: Test Example 5: herbicidal effect by foliage application, plastic box (Table 20, symbol M); format: in vivo, velvetleaf (Abutilon theophrasti); conditions: foliage application, 320 g/ha, three weeks after application
Outline: as §3

[8] = system: velvetleaf; assay: Test Example 4: herbicidal effect by soil treatment (Table 19, symbol M); format: in vivo, velvetleaf (Abutilon theophrasti); conditions: amount of applied herbicide 320 g/ha
Outline: as §2

[9] = system: Italian ryegrass; assay: Test Example 5: herbicidal effect by foliage application, plastic box (Table 20, symbol K); format: in vivo, Italian ryegrass (Lolium multiflorum); conditions: foliage application, 320 g/ha, three weeks after application
Outline: as §3

[10] = system: windgrass; assay: Test Example 4: herbicidal effect by soil treatment (Table 19, symbol L); format: in vivo, windgrass (Apera spica-venti); conditions: amount of applied herbicide 320 g/ha
Outline: as §2

[11] = system: wild oat; assay: Test Example 4: herbicidal effect by soil treatment (Table 19, symbol I); format: in vivo, wild oat (Avena fatua); conditions: amount of applied herbicide 320 g/ha
Outline: as §2

[12] = system: lambsquarters; assay: Test Example 4: herbicidal effect by soil treatment (Table 19, symbol O); format: in vivo, lambsquarters (Chenopodium album); conditions: amount of applied herbicide 320 g/ha
Outline: as §2

[13] = system: windgrass; assay: Test Example 5: herbicidal effect by foliage application, plastic box (Table 20, symbol L); format: in vivo, windgrass (Apera spica-venti); conditions: foliage application, 320 g/ha, three weeks after application
Outline: as §3

[14] = system: rice flat sedge; assay: Test Example 3: herbicidal effect by foliage application, Wagner pot (Table 18, symbol E); format: in vivo, rice flat sedge (Cyperus iria); conditions: for herbicidal effect on rice flat sedge (E): 320 g/ha; for Herbicidal effect on E (rice flat sedge), foliage application: amount of applied herbicide 320 g/ha
Outline: as §1

[15] = system: Italian ryegrass; assay: Test Example 4: herbicidal effect by soil treatment (Table 19, symbol K); format: in vivo, Italian ryegrass (Lolium multiflorum); conditions: amount of applied herbicide 320 g/ha
Outline: as §2

[16] = system: oval-leafed pondweed; assay: Test Example 2: herbicidal activity, application during weed generation under submerged conditions (Table 17, symbol C); format: in vivo, oval-leafed pondweed (Monochoria vaginalis); conditions: AAH 320 g/ha; application during weed generation, submerged conditions
Outline: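 Alluvial soil in Wagner pots was flooded to 4 cm depth and sown with the three weeds together; pots were kept in a greenhouse at 25° C. to 30° C. At the one to two leaf stage, an emulsion formulation diluted in water to a set rate went onto the water surface; scored three weeks later.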

[17] = system: green foxtail; assay: Test Example 4: herbicidal effect by soil treatment (Table 19, symbol G); format: in vivo, green foxtail (Setaria viridis); conditions: amount of applied herbicide 320 g/ha
Outline: as §2

Row | Structure (SMILES) | herbicidal effect on Chinese sprangletop (D) [1] | Q: false cleavers, herbicidal effect grade [2] | P: chickweed, herbicidal effect grade [3] | H: barnyard grass, herbicidal effect grade [4] | Herbicidal effect, A: late watergrass [5] | R: persian speedwell, herbicidal effect grade [6] | M: velvetleaf, herbicidal effect grade [7] | M: velvetleaf, herbicidal effect grade [8] | K: Italian ryegrass, herbicidal effect grade [9] | L: windgrass, herbicidal effect grade [10] | I: wild oat, herbicidal effect grade [11] | O: lambsquarters, herbicidal effect grade [12] | L: windgrass, herbicidal effect grade [13] | herbicidal effect on rice flat sedge (E) [14] | K: Italian ryegrass, herbicidal effect grade [15] | herbicidal effect rating, C: oval-leafed pondweed [16] | Herbicidal effect on D (Chinese sprangletop), foliage application [1] | herbicidal effect on barnyard grass (H) [4] | herbicidal effect on velvetleaf (M) [7] | herbicidal effect on Italian ryegrass (K) [9] | also measured
1 | CCCC(=O)Oc1c(C)nn(C)c(=O)c1-c1c(-c2ccccc2)sc2cc(OC)ccc12 [3-062] | 1 (Herbicidal rate of 5% or more and less than 20%) | 2 (Herbicidal rate of 20% or more and less than 40%) | 5 (Herbicidal rate of 90% or more (almost completely withered)) | 0 (Herbicidal rate of 5% or less (almost no effect)) | 3 (Herbicidal rate of 40% or more and less than 70%) | 4 (Herbicidal rate of 70% or more and less than 90%) | 3 (Herbicidal rate of 40% or more and less than 70%) | 0 (Herbicidal rate of 5% or less (almost no effect)) | 2 (Herbicidal rate of 20% or more and less than 40%) | 0 (Herbicidal rate of 5% or less (almost no effect)) | 0 (Herbicidal rate of 5% or less (almost no effect)) | 0 (Herbicidal rate of 5% or less (almost no effect)) | 0 (Herbicidal rate of 5% or less (almost no effect)) | 5 (Herbicidal rate of 90% or more (almost completely withered)) | 0 (Herbicidal rate of 5% or less (almost no effect)) | 3 (Herbicidal rate of 40% or more and less than 70%) |  |  |  |  | 
2 | Cc1nn(C)c(=O)c(-c2c(-c3ccc(OCC(C)C)cc3)oc3ccc(F)cc23)c1O [9-027] |  | 0 (Herbicidal rate of 5% or less (almost no effect)) |  |  | 5 (Herbicidal rate of 90% or more (almost completely withered)) | 5 (Herbicidal rate of 90% or more (almost completely withered)) |  | 5 (Herbicidal rate of 90% or more (almost completely withered)) |  | 4 (Herbicidal rate of 70% or more and less than 90%) | 0 (Herbicidal rate of 5% or less (almost no effect)) | 5 (Herbicidal rate of 90% or more (almost completely withered)) |  |  | 4 (Herbicidal rate of 70% or more and less than 90%) | 4 (Herbicidal rate of 70% or more and less than 90%) | 2 (Herbicidal rate of 20% or more and less than 40%) | 5 (Herbicidal rate of 90% or more (almost completely withered)) | 5 (Herbicidal rate of 90% or more (almost completely withered)) | 5 (Herbicidal rate of 90% or more (almost completely withered)) | G: green foxtail, herbicidal effect grade [17]: 5 (Herbicidal rate of 90% or more (almost completely withered)); herbicidal effect on windgrass (L) [13]: 5 (Herbicidal rate of 90% or more (almost completely withered)); Herbicidal effect on E (rice flat sedge), foliage application [14]: 5 (Herbicidal rate of 90% or more (almost completely withered))
3 | CCCC(=O)Oc1c(C)nn(C)c(=O)c1-c1c(-c2ccc(F)cc2OC)sc2cc(OC)ccc12 [3-077] | 1 (Herbicidal rate of 5% or more and less than 20%) | 2 (Herbicidal rate of 20% or more and less than 40%) | 5 (Herbicidal rate of 90% or more (almost completely withered)) | 0 (Herbicidal rate of 5% or less (almost no effect)) | 5 (Herbicidal rate of 90% or more (almost completely withered)) | 4 (Herbicidal rate of 70% or more and less than 90%) | 4 (Herbicidal rate of 70% or more and less than 90%) | 0 (Herbicidal rate of 5% or less (almost no effect)) | 3 (Herbicidal rate of 40% or more and less than 70%) | 3 (Herbicidal rate of 40% or more and less than 70%) | 2 (Herbicidal rate of 20% or more and less than 40%) | 4 (Herbicidal rate of 70% or more and less than 90%) | 4 (Herbicidal rate of 70% or more and less than 90%) | 5 (Herbicidal rate of 90% or more (almost completely withered)) | 3 (Herbicidal rate of 40% or more and less than 70%) | 4 (Herbicidal rate of 70% or more and less than 90%) |  |  |  |  | 
4 | Cc1nn(C)c(=O)c(-c2c(-c3ccc4c(c3)OCCO4)oc3ccccc23)c1O [8-002] |  | 0 (Herbicidal rate of 5% or less (almost no effect)) |  |  | 4 (Herbicidal rate of 70% or more and less than 90%) | 5 (Herbicidal rate of 90% or more (almost completely withered)) |  | 0 (Herbicidal rate of 5% or less (almost no effect)) |  | 0 (Herbicidal rate of 5% or less (almost no effect)) | 0 (Herbicidal rate of 5% or less (almost no effect)) | 0 (Herbicidal rate of 5% or less (almost no effect)) |  |  | 0 (Herbicidal rate of 5% or less (almost no effect)) | 5 (Herbicidal rate of 90% or more (almost completely withered)) | 3 (Herbicidal rate of 40% or more and less than 70%) | 4 (Herbicidal rate of 70% or more and less than 90%) | 5 (Herbicidal rate of 90% or more (almost completely withered)) | 4 (Herbicidal rate of 70% or more and less than 90%) | G: green foxtail, herbicidal effect grade [17]: 3 (Herbicidal rate of 40% or more and less than 70%); herbicidal effect on windgrass (L) [13]: 1 (Herbicidal rate of 5% or more and less than 20%); Herbicidal effect on E (rice flat sedge), foliage application [14]: 4 (Herbicidal rate of 70% or more and less than 90%)

Reference: US20230085307A1, “PYRIDAZINONE COMPOUND AND HERBICIDE” (NISSAN CHEMICAL CORPORATION, priority 2019, published 2023)
